Where “and” joins values, the source holds several entries; their conditions need not be identical. Equal entries are not always repeated.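 Interpolation was linear, between the two tested concentrations surrounding the appropriate level; five concentrations were tested over 48 hours in 96-well plates. The concentration for 50% growth inhibition is given as GI50. At the TGI there is no net growth.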
Legend:
Experiment in all cases: NCI tumour cell line growth inhibition, 48 h
BT-549 breast = test system: BT-549 breast
DU-145 prostate = test system: DU-145 prostate
HS 578T breast = test system: HS 578T breast
MCF7 breast = test system: MCF7 breast
MDA-MB-435 = test system: MDA-MB-435
NCI/ADR-RES ovarian = test system: NCI/ADR-RES ovarian
T-47D breast = test system: T-47D breast

| SMILES | GI50 (BT-549 breast) [µM] | TGI (BT-549 breast) | GI50 (DU-145 prostate) [µM] | TGI (DU-145 prostate) | GI50 (HS 578T breast) [µM] | TGI (HS 578T breast) | GI50 (MCF7 breast) [µM] | TGI (MCF7 breast) | GI50 (MDA-MB-435) [µM] | TGI (MDA-MB-435) | GI50 (NCI/ADR-RES ovarian) [µM] | TGI (NCI/ADR-RES ovarian) | GI50 (T-47D breast) [µM] | TGI (T-47D breast) |
| --- | --- | --- | --- | --- | --- | --- | --- | --- | --- | --- | --- | --- | --- | --- |
| Cn1cc(-c2csc(-c3cn(C)c4ncccc34)n2)c2ccccc21 | 0.409 | 26.2 µM | 0.436 | 23.5 µM | 0.451 | 18.8 µM | 0.322 | > 100 µM | 0.0414 | 0.186 µM | 0.135 | 3.47 µM |  |  |
| c1ccc(CNc2nc(Nc3ccc(-c4nc5ccccc5[nH]4)cc3)c3cn[nH]c3n2)cc1 | 2.03 | 5.27 µM | 3.33 | 12.5 µM | 2.45 | 8.22 µM | 1.95 | 6.35 µM | 1.97 | 5.15 µM | 2.22 | 5.99 µM | 1.63 | 5.46 µM |
| OCCC#Cc1ccccc1C#Cc1ccccc1 | 8.98 | 22.3 µM | 12.5 | 26.5 µM | 11.9 | 33.3 µM | 22.7 | 46.5 µM | 11.4 | 23.5 µM | 17.9 | 53.6 µM | 39.3 | > 100 µM |
| Cc1ccc2c(c1)/C(=N\N=C/c1cn(C(C)C)c3ccccc13)C(=O)N2 | 3.58 | > 100 µM | 8.17 | > 100 µM | 10.6 | > 100 µM | 0.504 | > 100 µM | 2.16 | 10.3 µM | 73 | > 100 µM | 0.953 | > 100 µM |
| COC12c3ccccc3-c3ccccc3C1[C@@H](C(=O)O)[C@H]2C(=O)O (stereo partly specified) |  |  |  | > 10 µM |  | > 10 µM |  | > 10 µM |  | > 10 µM |  | > 10 µM |  | > 10 µM |
| CC[C@]12C=CCN3CC[C@]4(C(=C(C(=O)OC)C1)Nc1ccccc14)[C@@H]32 | 8.71 | 21.6 µM | 3.81 | 14.5 µM | 2.99 | 17.2 µM | 3.33 | 13.1 µM | 2.06 | 5.63 µM | 6.39 | 58.1 µM | 2.82 | 15.9 µM |
| Cn1cccc1C1CC(=O)N(CCC[Se]C#N)C1=O (stereo unspecified) |  |  | 1.81 | 3.78 µM | 2.44 | 7.33 µM | 2.85 | 14.6 µM | 1.78 | 3.48 µM | 2.69 | 7.85 µM | 2.78 | 12.8 µM |
| O=[N+]([O-])c1ccc([I+]c2ccccc2)cc1 | 1.63 | 8.12 µM and 3.09 µM | 2.25 | 25 µM and 6.35 µM | 2 | 13.5 µM and 5.85 µM | 2.24 | 10.3 µM and 8.25 µM | 1.85 | 23.3 µM and 4.33 µM | 2.25 | > 29.1 µM and 6.92 µM | 1.3 | 26 µM and 5.04 µM |
| COc1cc(-c2cn(-c3ccc(Cl)cc3)c(=O)n2-c2ccccc2)cc(OC)c1OC | > 92.1 | > 100 µM | > 100 | > 100 µM | > 50.5 | 97.1 µM | > 53.5 | > 100 µM | > 100 | > 100 µM | > 92.9 | > 100 µM | 21.7 | > 100 µM |
| COc1cc2c(cc1OCCCN1CCN(CCCOc3cc4c(cc3OC)C(=O)C3CCC[C@H]3C=N4)CC1)N=C[C@@H]1CCCC1C2=O (stereo partly specified) | 1.7 | > 100 µM | 2.41 | > 100 µM | 1.42 | 15.1 µM | 1.44 | > 100 µM | 5.89 | 30.3 µM | > 100 | > 100 µM | 15 | > 100 µM |
| Nc1nccc(C#Cc2cncnc2Nc2ccc(OCc3cccc(F)c3)c(Cl)c2)n1 | 3.15 | 9.62 µM | 4.37 | 7.81 µM | 6.32 | 20.5 µM | 3.99 | 8.25 µM | 5.36 | > 23.8 µM | 6.6 | > 25 µM | 3.1 | 8.03 µM |
| CCN1C(=O)N(CC)C2C1NN=c1s/c(=C\c3ccc([N+](=O)[O-])cc3)c(=O)n12 (stereo unspecified) | 1.55 | 16.5 µM | 0.424 | > 100 µM | 0.328 | > 72.5 µM | 0.315 | > 100 µM |  |  | 0.396 | > 45.2 µM | 0.575 | > 100 µM |
| O=C1/C(=C\c2ccccc2)CN(C(=O)c2ccccc2F)C/C1=C\c1ccccc1 | 1.86 | 3.58 µM | 2.73 | 6.41 µM | 2.48 | 7.13 µM | 0.449 | 2.07 µM | 1.13 | 3.32 µM | 3.3 | 19.4 µM | 2.57 | 8.78 µM |
| CCN=C(N)CSS(=O)(=O)O |  | > 100 µM |  | > 100 µM |  | > 100 µM |  | > 100 µM |  | > 100 µM |  | > 100 µM |  | > 100 µM |
| Cn1cc(-c2ccc3c(c2)ncn3-c2ccc(CC(=O)Nc3cc(C(C)(C)C)on3)cc2)cn1 | 1.49 | 13.2 µM | 1.37 | 9.49 µM | 0.187 | 1.46 µM | 1.55 | > 52 µM | 2.55 | > 100 µM | 2.23 | > 35.1 µM | 0.683 | 25.5 µM |
| COc1cc2c(c(Br)c1N)-c1cc(Br)c(N)cc1C2=O | > 24.8 | > 100 µM | 59.8 | > 100 µM | 3.02 | > 100 µM | 0.131 | > 100 µM | > 100 | > 100 µM | 5.31 | > 100 µM | 0.307 | > 100 µM |
| O=S(=O)(Nc1ccc2ccc3cccc4ccc1c2c34)c1ccccc1 |  | > 100 µM |  | > 100 µM |  | > 100 µM |  | > 100 µM |  | 24.4 µM |  | > 100 µM |  | > 100 µM |
| CC(=O)NNc1nc(C)c(C(/C=C/c2ccc3c(c2)OCO3)=N/NC(=O)c2ccncc2)s1 |  | > 100 µM |  |  |  | > 100 µM |  | > 100 µM |  | > 100 µM |  | > 100 µM |  | > 100 µM |
